Here are results for seven compounds from ChEMBL document CHEMBL1201862, “PubChem BioAssay data set” (2004).

Molecules are shown by their SMILES. Activity calls are given as the source filed them.

Assay [1] deals with T1, Protein disulfide-isomerase (Homo sapiens, UniProt P07237). Briefly: PDI inhibitors, insulin turbidity readout, dose response, biochemical, absorbance, cherry-picked samples, set 2 (AID 624274). In kind it is functional.
Assay [2] has as its target T1, Protein disulfide-isomerase. Briefly: PDI inhibitors, insulin aggregation turbidity, dose response, biochemical, absorbance, cherry-picked samples (AID 602350). The assay is classed as functional.
Assay [3] concerns Cryptococcus neoformans. Nature of the assay: Cryptococcus growth inhibition by alamar blue – cell lysis, cherry-picks, replicate tests, mechanism study for C. neoformans antifungal project, dose response (AID 686999). The assay is classed as functional, organism-based. On the technique in general: Resazurin is reduced to fluorescent resorufin, in cell work by metabolically active cells.

For assay [4], the system named is HeLa. Briefly: HeLa cell cytotoxicity, dose response, cytotoxicity control, ATP luminescence, cherry-pick samples (AID 687004). In kind it is functional, cell-based. The settings on record: Homo sapiens.
A short description of assay [5]: ARNT/TACC3 interaction disruptors, potency, confirmation, biochemical, AlphaScreen, cherry-picked samples (AID 651703).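 Note: His-tagged ARNT PAS-B domain paired with GST-TACC3 E629A dimer coactivator fragment; potency of inhibitors that break up the complex and lower AlphaScreen signal.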 The assay is classed as functional, Homo sapiens. In general terms: Bead proximity is the source of the signal in Alpha formats.
Assay [6] addresses Voltage-dependent T-type calcium channel subunit alpha-1H (Homo sapiens, UniProt O95180). The assay is classed as functional.
The target in assay [7] is Steroidogenic factor 1 (Homo sapiens, UniProt Q13285). Briefly: Counterscreen for inverse agonists of the liver receptor homolog-1 (LRH-1; NR5A2): Luminescence-based cell-based high throughput dose response assay to identify inverse agonists of the Steroidogenic Factor 1 Nuclear Receptor (SF1; NR5A1). The assay is classed as functional. (In general: Counterscreens check selectivity or assay interference.)

The target in assay [8] is Nuclear receptor subfamily 5 group A member 2 (Homo sapiens, UniProt O00482). In kind it is functional, cell-based.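 Note: HEK293T cells transfected with LRH-1 and a StAR promoter luciferase reporter; potency for inhibitors that lower LRH-1 driven reporter light.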
The nature of assay [9]: StAR promoter reporter inhibition counter-screen, dose response, counter-screen for LRH-1 inverse agonist project, cell-based, luminescence, luciferase reporter (AID 651969). The assay is classed as functional.
Assay [10] addresses Matrix metalloproteinase-14 (Homo sapiens, UniProt P50281). Nature of the assay: Dose Response confirmation of uHTS hits for a small molecule inhibitors of MT1-MMP activation in a fluorescence assay set 1. In kind it is functional.
Assay [11] deals with T2, Rac GTPase-activating protein 1 (Homo sapiens, UniProt Q9H0H5).
T2 sequence (Q9H0H5 whole entry): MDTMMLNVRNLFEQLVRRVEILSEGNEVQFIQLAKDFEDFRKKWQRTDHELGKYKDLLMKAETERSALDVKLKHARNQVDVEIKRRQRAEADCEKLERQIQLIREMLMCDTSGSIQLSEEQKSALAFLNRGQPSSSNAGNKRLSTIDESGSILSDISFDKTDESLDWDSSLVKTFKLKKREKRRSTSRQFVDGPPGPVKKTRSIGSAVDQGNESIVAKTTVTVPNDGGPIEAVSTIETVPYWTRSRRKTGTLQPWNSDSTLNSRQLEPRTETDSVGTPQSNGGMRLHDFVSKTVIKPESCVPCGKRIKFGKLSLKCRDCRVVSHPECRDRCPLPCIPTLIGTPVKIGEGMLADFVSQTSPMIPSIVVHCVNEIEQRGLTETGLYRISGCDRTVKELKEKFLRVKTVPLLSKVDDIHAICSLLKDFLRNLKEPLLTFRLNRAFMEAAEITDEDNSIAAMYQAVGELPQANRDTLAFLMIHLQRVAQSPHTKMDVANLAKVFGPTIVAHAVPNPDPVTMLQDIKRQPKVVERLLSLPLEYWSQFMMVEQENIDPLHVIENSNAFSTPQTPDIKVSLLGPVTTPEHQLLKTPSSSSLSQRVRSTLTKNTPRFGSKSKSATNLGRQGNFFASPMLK
Nature of the assay: MgcRacGAP GTPase-activating activity inhibitors, confirmation, biochemical, ADP Hunter fluorescence, primary and confirmatory (AID 624330). The assay is classed as functional.

Assay [12] in a line: HeLa cell cytotoxicity, dose response, cytotoxicity control for MgcRacGAP inhibitor project (AID 624300). In kind it is functional.
Assay [13] has as its target T3, Small ubiquitin-related modifier 1 (Homo sapiens, UniProt P63165). Nature of the assay: inhibitors of SUMO1 partner interactions, dose response, biochemical, FRET (AID 624383). The assay is classed as functional. The note with it: read-out: IC50_Mean.
In assay [14] the target is T3, Small ubiquitin-related modifier 1. Nature of the assay: inhibitors of SUMO1 peptide binding, dose response, biochemical, fluorescence polarization, uHTS hits (AID 624382). In kind it is functional. The note with it: read-out: IC50_Mean.
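Throughout, for EC50: channel activity triggered by adding a high calcium stimulation buffer.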

T3 sequence (P63165 whole entry): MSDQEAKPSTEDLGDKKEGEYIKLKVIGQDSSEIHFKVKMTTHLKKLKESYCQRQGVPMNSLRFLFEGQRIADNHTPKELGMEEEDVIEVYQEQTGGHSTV
T1 sequence (P07237 whole entry): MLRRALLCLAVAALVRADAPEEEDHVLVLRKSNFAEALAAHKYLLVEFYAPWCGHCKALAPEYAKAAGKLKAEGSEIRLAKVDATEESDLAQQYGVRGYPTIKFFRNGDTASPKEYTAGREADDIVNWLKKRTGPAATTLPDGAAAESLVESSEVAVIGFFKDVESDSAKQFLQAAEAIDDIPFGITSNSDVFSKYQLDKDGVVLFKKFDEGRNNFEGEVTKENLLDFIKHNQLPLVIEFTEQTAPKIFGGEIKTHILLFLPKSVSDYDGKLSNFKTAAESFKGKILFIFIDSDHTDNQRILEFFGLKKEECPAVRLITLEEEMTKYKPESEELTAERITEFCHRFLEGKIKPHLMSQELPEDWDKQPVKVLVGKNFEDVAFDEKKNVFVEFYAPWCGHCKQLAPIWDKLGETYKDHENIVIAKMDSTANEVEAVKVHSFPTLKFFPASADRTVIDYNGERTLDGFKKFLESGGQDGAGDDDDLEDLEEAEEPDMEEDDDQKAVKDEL
Chain of Voltage-dependent T-type calcium channel subunit alpha-1H (O95180 whole entry): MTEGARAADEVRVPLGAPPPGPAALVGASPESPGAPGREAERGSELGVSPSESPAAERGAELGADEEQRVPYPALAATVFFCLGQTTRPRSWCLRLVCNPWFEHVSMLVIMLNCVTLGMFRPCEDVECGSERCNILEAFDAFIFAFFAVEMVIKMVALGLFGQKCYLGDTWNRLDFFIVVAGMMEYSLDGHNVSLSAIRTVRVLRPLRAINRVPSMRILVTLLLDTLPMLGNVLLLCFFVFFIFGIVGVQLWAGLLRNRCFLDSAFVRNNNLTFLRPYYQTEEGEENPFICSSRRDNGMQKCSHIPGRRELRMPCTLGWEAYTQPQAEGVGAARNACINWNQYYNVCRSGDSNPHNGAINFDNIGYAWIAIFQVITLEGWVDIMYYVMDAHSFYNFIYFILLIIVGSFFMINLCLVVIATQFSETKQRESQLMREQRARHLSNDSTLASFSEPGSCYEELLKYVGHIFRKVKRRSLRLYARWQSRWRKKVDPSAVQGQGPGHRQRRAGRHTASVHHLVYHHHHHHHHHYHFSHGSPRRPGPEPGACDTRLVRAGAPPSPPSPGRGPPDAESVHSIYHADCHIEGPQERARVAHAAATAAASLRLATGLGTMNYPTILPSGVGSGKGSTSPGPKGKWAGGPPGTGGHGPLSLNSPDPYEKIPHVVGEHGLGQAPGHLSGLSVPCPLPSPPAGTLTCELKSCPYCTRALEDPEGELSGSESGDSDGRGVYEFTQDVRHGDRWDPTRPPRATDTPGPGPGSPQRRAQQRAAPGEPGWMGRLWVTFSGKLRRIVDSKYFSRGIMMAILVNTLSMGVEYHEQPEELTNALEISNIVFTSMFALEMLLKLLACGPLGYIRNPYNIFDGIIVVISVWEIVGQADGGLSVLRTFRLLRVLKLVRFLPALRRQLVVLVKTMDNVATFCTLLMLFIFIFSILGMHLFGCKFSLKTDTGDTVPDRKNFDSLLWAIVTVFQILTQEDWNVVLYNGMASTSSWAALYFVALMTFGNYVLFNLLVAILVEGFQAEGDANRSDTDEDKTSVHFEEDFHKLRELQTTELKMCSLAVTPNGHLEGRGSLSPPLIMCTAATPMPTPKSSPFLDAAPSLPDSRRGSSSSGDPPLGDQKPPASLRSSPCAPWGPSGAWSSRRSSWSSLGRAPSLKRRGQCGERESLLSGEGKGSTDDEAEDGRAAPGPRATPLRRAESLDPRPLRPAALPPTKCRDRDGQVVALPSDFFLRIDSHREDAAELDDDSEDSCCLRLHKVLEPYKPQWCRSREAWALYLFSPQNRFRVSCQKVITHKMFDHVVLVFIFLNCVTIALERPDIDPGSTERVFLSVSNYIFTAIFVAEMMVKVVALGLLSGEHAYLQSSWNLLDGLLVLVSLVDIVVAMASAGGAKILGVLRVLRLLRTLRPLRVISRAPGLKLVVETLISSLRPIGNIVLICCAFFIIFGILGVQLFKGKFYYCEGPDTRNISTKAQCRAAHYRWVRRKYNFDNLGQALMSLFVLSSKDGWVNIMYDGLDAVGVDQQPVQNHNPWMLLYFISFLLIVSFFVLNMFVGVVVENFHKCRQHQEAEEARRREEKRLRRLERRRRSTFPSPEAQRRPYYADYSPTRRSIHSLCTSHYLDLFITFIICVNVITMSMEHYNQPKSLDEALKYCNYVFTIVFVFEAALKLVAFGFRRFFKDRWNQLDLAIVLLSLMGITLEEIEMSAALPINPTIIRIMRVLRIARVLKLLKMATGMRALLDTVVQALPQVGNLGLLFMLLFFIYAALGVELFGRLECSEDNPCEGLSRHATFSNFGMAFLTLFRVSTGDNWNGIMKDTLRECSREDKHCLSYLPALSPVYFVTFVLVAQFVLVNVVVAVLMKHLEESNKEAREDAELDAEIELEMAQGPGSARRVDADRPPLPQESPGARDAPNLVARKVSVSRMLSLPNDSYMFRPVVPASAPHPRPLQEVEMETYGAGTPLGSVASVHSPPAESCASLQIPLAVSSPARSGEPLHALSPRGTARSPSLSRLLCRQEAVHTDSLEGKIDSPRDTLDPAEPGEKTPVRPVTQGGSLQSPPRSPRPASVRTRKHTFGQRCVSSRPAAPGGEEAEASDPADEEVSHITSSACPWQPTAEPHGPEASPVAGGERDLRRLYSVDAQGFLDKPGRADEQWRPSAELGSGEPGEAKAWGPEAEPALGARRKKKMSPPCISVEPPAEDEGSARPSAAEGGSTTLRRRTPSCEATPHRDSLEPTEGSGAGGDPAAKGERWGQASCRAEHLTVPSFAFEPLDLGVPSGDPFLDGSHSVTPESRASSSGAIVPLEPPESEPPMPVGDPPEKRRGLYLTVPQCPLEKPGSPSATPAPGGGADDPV
Chain of Steroidogenic factor 1 (Q13285 whole entry): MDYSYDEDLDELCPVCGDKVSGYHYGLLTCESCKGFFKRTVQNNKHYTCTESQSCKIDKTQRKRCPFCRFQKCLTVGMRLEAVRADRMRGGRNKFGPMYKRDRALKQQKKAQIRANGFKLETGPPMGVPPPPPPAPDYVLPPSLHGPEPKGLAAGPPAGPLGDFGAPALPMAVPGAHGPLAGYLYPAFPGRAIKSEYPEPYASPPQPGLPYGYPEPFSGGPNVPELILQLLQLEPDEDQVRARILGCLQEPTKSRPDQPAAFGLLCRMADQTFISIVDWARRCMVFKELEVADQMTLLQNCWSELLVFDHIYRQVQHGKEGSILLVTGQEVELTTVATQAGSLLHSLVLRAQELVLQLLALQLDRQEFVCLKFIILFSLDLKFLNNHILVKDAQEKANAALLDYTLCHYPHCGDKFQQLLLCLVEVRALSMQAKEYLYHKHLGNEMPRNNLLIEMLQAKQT
Chain of Nuclear receptor subfamily 5 group A member 2 (O00482 whole entry): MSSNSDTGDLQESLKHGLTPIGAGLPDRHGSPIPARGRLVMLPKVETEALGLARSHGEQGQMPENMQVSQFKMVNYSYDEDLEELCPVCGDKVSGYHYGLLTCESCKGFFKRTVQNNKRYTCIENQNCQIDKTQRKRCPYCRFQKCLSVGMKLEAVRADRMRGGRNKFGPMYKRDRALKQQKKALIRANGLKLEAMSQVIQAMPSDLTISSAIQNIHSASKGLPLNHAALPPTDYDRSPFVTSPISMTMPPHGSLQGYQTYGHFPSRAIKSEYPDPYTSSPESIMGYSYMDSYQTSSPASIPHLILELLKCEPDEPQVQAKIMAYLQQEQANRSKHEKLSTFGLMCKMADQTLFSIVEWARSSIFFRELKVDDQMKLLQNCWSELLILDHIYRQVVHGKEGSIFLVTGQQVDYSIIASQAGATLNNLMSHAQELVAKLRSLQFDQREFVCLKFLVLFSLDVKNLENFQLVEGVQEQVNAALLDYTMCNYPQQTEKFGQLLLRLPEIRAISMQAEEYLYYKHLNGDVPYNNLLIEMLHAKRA

As a reminder, the AC50 is the concentration at which the activity in the assay is half-maximal. As to `CC1Cc2ccccc2N1C(=O)CSc1nnc2sc3ccccc3n12` (centres undefined), the AC50 in assay [1] was 0.009 µM (active); in assay [2], < 0.009 µM (active).

For the compound `COC(=O)C1=C(C)N(Cc2ccc(F)cc2)C(=S)NC1c1ccc(F)cc1` (centres undefined), the results for the AC50 in assay [3] and in assay [4] were 56.1 µM (active) and > 52 µM (inactive), respectively.

The EC50 is the midpoint of the concentration-response curve. For the compound `COc1ccc(C(c2nnnn2C2CCCC2)N2CCc3ccccc3C2)cc1OC` (centres undefined), the AC50 in [5] is 132 µM (active). Moreover, the EC50 in assay [6] was 5.07 µM (active).

In the case of `COc1cc(C(=O)Nc2ccccc2N2CCN(S(C)(=O)=O)CC2)cc(OC)c1OC`, the values for the IC50 in assay [7], in assay [8] and in assay [9] were 7.65 µM (active), 14.6 µM (inactive) and 35.9 µM (inactive), respectively.

In the case of `Cc1cccc[n+]1CC(=O)/C=C1\N(C)c2ccccc2C1(C)C`, in [10], the IC50 was 24.1 µM (inactive).

A word on the CC50: it is the concentration at which the toxic effect on the cells reaches its halfway point. As to `Nc1nc(S)c2[nH]c(S)nc2n1`, in [11], the IC50 was 112 µM (active). The 50% cytotoxic concentration (CC50) in assay [12] was 100 µM (active).

As for `CC(=O)c1sc(Nc2nc3cc4c(cc3s2)OCO4)nc1C`, the figures for the IC50 in assay [13] and in [14] were 11.1 µM (active) and > 66.6 µM (inactive), respectively.
